Laboratory results: US9657351B2, “MRNA-based gene expression for personalizing patient cancer therapy with an MDM2 antagonist” (Hoffmann-La Roche Inc., priority 2013, dated 2017)

Legend:
P21 = assay: NP21280 solid tumor trial, tumor biopsy biomarker (p21 IHC); assay type: in vivo, human; conditions: p=2.32×10−3
Procedure: (§1) The predictive mRNA signature is also evaluated in two solid tumor trials (FIG. 1). […] In both clinical trials, a biomarker package that enabled assessment of p53 pathway activation is assessed (p53 IHC, p21 IHC, MDM2 mRNA, and Ki67), MDM2 inhibition activates the P53 pathway and decreases cell proliferation.

[1] = test system: 4-gene mRNA signature score (MDM2, XPC, BBC3, CDKN2A); assay: NO21279 4-gene mRNA signature score on treatment; assay type: in vivo, human
Procedure: (§2) MDM2 mRNA concentrations were assessed at Roche Molecular Systems by quantitative real-time PCR with 50 ng total RNA from MACs isolated leukemia cells from blood. TaqMan (Invitrogen, Carlsbad, Calif., USA) probes were designed to detect MDM2 mRNA and the reference mRNA, beta-glucuronidase, simultaneously using two different fluorescent reporters. Gene expression profiles were generated using Affymetrix U133 Plus 2.0 microarrays. Probset ID's for the each of the four genes on said U133 Plus 2.0 microarray are: 209375_s_at (for XPC); 205386_s_at and 211832_s_at (MDM2); 211692_s_at (BBC3); 207039_at and 211156_at (CDKN2A). The “mRNA expression level” for one of the 4 genes according to the present invention is the accumulation of all counts falling into the range of exons of a gene (e.g. MDM2). […] The predictive patient signature score according to the present invention is then calculated using the following equation: patient signature score=GMDM2+GXPC+GBBC3−GCDKN2A. G in the formula stands for log 2 transformed mRNA expression levels as obtained from patient samples, for example blood leukemia or bone marrow biopsy samples. For example, for the patient data reported in Table 9 (Example 5), G is log 2 of the mRNA probeset expression of the relevant gene as measured with Affymetrix U133 Plus 2.0 microarrays.
Risk scores are calculated for patients based on their mRNA expression values of the 4 genes at baseline prior to treatment. To ensure a rigorous and an unbiased validation, the compute of the coefficients in the test cohort is not done. However, due to the platform difference and the biological differences between patients and cell lines, in-vitro coefficients for the patient level classifier is not applied.

CDKN2A mRNA = assay: NO21279 blood cell gene expression on treatment, Affymetrix U133 Plus 2.0 microarray; assay type: in vivo, human; conditions: C1D10; IQR 0.09-0.38
Procedure: as §2
(§3) Each intensity value is then log 2 transformed.

MDM2 mRNA = assay: as above; assay type: in vivo, human; conditions: blood cell specimens, C1D10; IQR 1.71-5.00
Procedure: as §2, §3

BBC3 mRNA = assay: as above; assay type: in vivo, human; conditions: blood cell specimens, C1D10; IQR 1.13-1.99
Procedure: as §2, §3

[2] = test system: CELLO/CACTEL human cancer cell lines; assay: COMPOUND A In Vitro Assay, whole CELLO/CACTEL panel (IC50 vs mRNA signature score, TP53 status, tumor type); assay type: cell-based; conditions: for % Res: resistant IC50>=10; for % Sen: sensitive IC50<=1
Excerpt: To generate an MDM2 antagonist therapy predictive signature, the response of MDM2 antagonist therapy in vitro with gene expression profiling (FIG. 1) is combined. A bank of 287 human cancer cell lines, collectively termed the Cell Lines for Oncology/Chugai ACcumulative Tumour EncycLopedia (CELLO/CACTEL), representing a broad array of diverse human cancer tumor types are subject to evaluation using several high-throughput genomic technology platforms. The mutational status of nucleic acids from each cell line is determined by exome sequencing. Messenger RNA (mRNA) expression levels at baseline, prior to MDM2 antagonist therapy, are obtained via RNA sequencing. MDM2 antagonist therapy COMPOUND A, sometimes referred to herein as RG7112, responses are obtained by assays known to those skilled in the art such as RNA sequencing and microarray measurement using Gene Chip Human Genome U133 Plus 2.0 Array. The MDM2 therapy responses are obtained by high throughout screening assays. Depending on their responses to COMPOUND A these cell lines are classified as either sensitive, defined as IC50<=1, or resistant, defined as IC50>=10.
281 cells are treated with MDM2 antagonists and the IC50 (therapy response) is generated. The cell lines span a broad range of tumor cell types of derivation.
To examine the specific prediction power of the mRNA signature score across the studied tumor types, and to make sure the prediction from the signature score is not confounded by tumor lineage, the signature score within each available tumor type in CELLO (Table 7, 7a) is examined.
The genes are ranked via their fold changes of responder cell lines to non-responder cell lines. Positive genes are defined as those with fold changes higher than 1; whereas negative genes are defined as those with fold changes less than 1. A multivariate logistic regression classifier is then built through a upward model selection procedure to maximize area under the receiver operating characteristic (ROC) curve with 10-fold cross-validation. The mode selection is implemented procedure through R package bestglm.

P53 = assay: NP21280 solid tumor trial, tumor biopsy biomarker (p53 IHC); assay type: in vivo, human; conditions: at C1D10, p=2.88×10−3
Procedure: as §1

[3] = Adenocarcinoma cell lines, N 21
[4] = Adenocarcinoma, colorectal cell lines, N 7
[5] = Bone marrow cell lines, Number 5
[6] = Breast, mammary gland cell lines, Number 20
[7] = Carcinoma, gastric cell lines, N 5
[8] = Carcinoma, primary ductal cell lines, N 5
[9] = Carcinoma, squamous cell cell lines, N 12
[10] = Carcinoma, urinary bladder, transitional cell carcinoma (TCC) cell lines, N 7
[11] = Intestine, large, colon cell lines, Number 8
[12] = Leukaemia, acute myeloid cell lines, N 5
[13] = Lymphocyte cell lines, Number 6
[14] = Myeloma, multiple cell lines, N 5
[15] = Neuroblastoma (Glioma, neuroblastoma) cell lines, N 6
[16] = Urinary, bladder cell lines, Number 8

Structure (SMILES): CCOc1cc(C(C)(C)C)ccc1C1=N[C@@](C)(c2ccc(Cl)cc2)[C@@](C)(c2ccc(Cl)cc2)N1C(=O)N1CCN(CCCS(C)(=O)=O)CC1 [COMPOUND A]
- P21 concentration change from baseline (P21): significantly increase
- median signature score over baseline ([1]; C1D2, CR patients, IQR 1.13-1.15): 1.15 times
- median signature score over baseline ([1]; C1D2, HI patients, IQR 1.04-1.10): 1.08 times
- median signature score over baseline ([1]; C1D2, MLFS patients, IQR 1.14-1.19): 1.17 times
- median signature score over baseline ([1]; C1D2, PD patients, IQR 1.05-1.16): 1.11 times
- median signature score over baseline ([1]; C1D10, CR patients, IQR 1.22-1.24): 1.23 times
- median signature score over baseline ([1]; C1D10, HI patients, IQR 1.23-1.30): 1.25 times
- overall signature score over baseline ([1]; C1D10, IQR 1.88-4.23): 3.05 times
- median signature score over baseline ([1]; C1D10, MLFS patients, IQR 1.23-1.31): 1.26 times
- median signature score over baseline ([1]; C1D10, PD patients, IQR 1.08-1.21): 1.14 times
- median CDKN2A mRNA expression decreased over baseline (CDKN2A mRNA): 0.26 times
- median MDM2 mRNA expression over baseline (MDM2 mRNA): 2.37 times
- median BBC3 mRNA expression over baseline (BBC3 mRNA): 1.45 times
- N (resistant) [2, 3]: 17
- N (sensitive) [2, 3]: 4
- N (resistant) [2, 4]: 5
- N (sensitive) [2, 4]: 2
- % Res [2, 5]: 60.0%
- % Sen [2, 5]: 40.0%
- % Res ([2]; Brain cell lines, Number 10): 50.0%
- % Sen ([2]; Brain cell lines, Number 10): 50.0%
- % Res [2, 6]: 85.0%
- % Sen [2, 6]: 15.0%
- N (resistant) ([2]; Carcinoma cell lines, N 8): 6
- N (sensitive) ([2]; Carcinoma cell lines, N 8): 2
- N (resistant) [2, 7]: 3
- N (sensitive) [2, 7]: 2
- N (resistant) [2, 8]: 4
- N (sensitive) [2, 8]: 1
- N (resistant) [2, 9]: 9
- N (sensitive) [2, 9]: 3
- N (resistant) [2, 10]: 6
- N (sensitive) [2, 10]: 1
- % Res [2, 11]: 62.5%
- % Sen [2, 11]: 37.5%
- N (resistant) [2, 12]: 3
- N (sensitive) [2, 12]: 2
- % Res ([2]; Lung cell lines, Number 41): 85.4%
- % Sen ([2]; Lung cell lines, Number 41): 14.6%
- % Res [2, 13]: 50.0%
- % Sen [2, 13]: 50.0%
- N (resistant) [2, 14]: 2
- N (sensitive) [2, 14]: 3
- N (resistant) [2, 15]: 3
- N (sensitive) [2, 15]: 3
- % Res ([2]; Ovary cell lines, Number 6): 66.7%
- % Sen ([2]; Ovary cell lines, Number 6): 33.3%
- % Res ([2]; Pancreas cell lines, Number 9): 100.0%
- % Sen ([2]; Pancreas cell lines, Number 9): 0.0%
- % Res ([2]; Skin cell lines, Number 6): 66.7%
- % Sen ([2]; Skin cell lines, Number 6): 33.3%
- % Res ([2]; Stomach cell lines, Number 8): 50.0%
- % Sen ([2]; Stomach cell lines, Number 8): 50.0%
- % Res [2, 16]: 75.0%
- % Sen [2, 16]: 25.0%
- P53 concentration change from baseline (P53): significantly increase
